Assay results as given in PMC8618934, “Synthesis, Crystal Structure, and Biological Evaluation of Novel 5-Hydroxymethylpyrimidines” (Materials, 2021).
≈ marks a conversion by molar mass, not a printed value.

Experiments:
[1] = test system: normal human endothelial cells; set-up: method as in PMID 30284980; settings: cited from earlier work
cancer cell lines = test system: cancer cell lines; set-up: method as in PMID 30284980; settings: range depending on the cancer cell line; cited from earlier work
Candida albicans = test: Antimicrobial activity, broth microdilution MIC; type: cell-based; settings: tested 256 to 0.5 µg mL^−1, 24 h, '-' not defined, no MIC in tested range, read-out: MIC C. albicans
Caco-2 = test: Neutral red uptake assay, Caco-2; type: cell-based; settings: Homo sapiens, 72 h incubation
Method: (§1) To all media (except for RPTEC), 2.5 µg mL^−1 amphotericin B, 100 U mL^−1 penicillin, and 100 µg mL^−1 streptomycin were added.
(§2) The cells were put in 96-well plates (1 × 10^5 cells per mL) of appropriate culture medium (100 µL per well). Before a general experiment, cells were attached for 24 h and then treated with various concentrations (500, 250, 100, and 10 µM) of pyrimidine derivatives and subsequently grown in 200 µL medium volume. […] The neutral red uptake assay was performed according to Repetto et al.. This method uses the ability of the living cells to accumulate dye in their lysosomes. […] Finally, the absorbance was measured at 540 nm using a Thermo Scientific™ Multiskan™ GO Microplate Spectrophotometer (Thermo Fisher).
The viability tests were conducted in quadruple wells (n = 4) for each condition. Values are presented as mean ± standard deviation (SD). Significant differences were calculated using one-way ANOVA, followed by post hoc comparison, and the half-maximal inhibitory concentration (IC50) was obtained by nonlinear regression using GraphPad Prism 9.1 for Windows, GraphPad Software, La Jolla, California, USA, www.graphpad.com. A p-value < 0.05 was considered statistically significant.

HepaRG = test: Neutral red uptake assay, HepaRG; type: cell-based, human; settings: 72 h incubation
Method: as §1, §2
(§3) The viability tests were conducted in quadruple wells (n = 4) for each condition. Values are presented as mean ± standard deviation (SD). Significant differences were calculated using one-way ANOVA, followed by post hoc comparison, and the half-maximal inhibitory concentration (IC50) was obtained by nonlinear regression using GraphPad Prism 9.1 for Windows, GraphPad Software, La Jolla, California, USA, www.graphpad.com.

A172 = test: Neutral red uptake assay, A172; type: cell-based; settings: Homo sapiens, A 172, 72 h incubation
Method: as §1, §2, §3

HeLa = test: Neutral red uptake assay, HeLa; type: cell-based; settings: Homo sapiens, 72 h incubation
Method: as §1, §2, §3

AGS = test: Neutral red uptake assay, AGS; type: cell-based; settings: Homo sapiens, 72 h incubation
Method: as §1, §2, §3

[2] = Neutral red uptake assay, viability of normal RPTEC cells; type: cell-based; settings: human, 72 h treatment, vs control with 1% DMSO = 100%, read-out: Viability of RPTEC cell line
Method: For cytotoxicity assays, the following cell lines were used: human renal proximal tubule epithelial cells (RPTEC-MTOX1030), epithelioid cervix carcinoma (HeLa-93021013), colon adenocarcinoma (Caco-2-86010202), hepatocarcinoma (HepaRG-MTOX1010), gastric adenocarcinoma (AGS-89090402), and glioblastoma (A172-88062428) cells were cultured in appropriate media according to the European Collection of Authenticated Cell Cultures (ECACC) recommendation. To all media (except for RPTEC), 2.5 µg mL^−1 amphotericin B, 100 U mL^−1 penicillin, and 100 µg mL^−1 streptomycin were added. In addition, the RPTEC cell line was cultured in media with 30 μg mL^−1 gentamicin and 15 ng mL^−1 amphotericin B. Cell cultures were incubated at 37 °C in a humidified atmosphere with 5% CO2 for at least three passages until performing experiments. All cell lines were grown in monolayers; thus, detachment with 0.25% trypsin solution was required for further assays.
The cells were put in 96-well plates (1 × 10^5 cells per mL) of appropriate culture medium (100 µL per well). Before a general experiment, cells were attached for 24 h and then treated with various concentrations (500, 250, 100, and 10 µM) of pyrimidine derivatives and subsequently grown in 200 µL medium volume. […]. The cells were incubated for 24, 48, and 72 h at 37 °C in a humidified 5% CO2/95% air incubator. The neutral red uptake assay was performed according to Repetto et al.. This method uses the ability of the living cells to accumulate dye in their lysosomes. Briefly, at the end of each incubation time the cells were treated with neutral red solution (40 µg mL^−1) for 2 h at 37 °C. Afterwards, the cells were washed with PBS, and the incorporated dye was solubilized with the extraction solution (50% ethanol, 49% H2O, 1% glacial acetic acid). The plates were gently shaken for 30 min at 37 °C. Finally, the absorbance was measured at 540 nm using a Thermo Scientific™ Multiskan™ GO Microplate Spectrophotometer (Thermo Fisher).
The viability tests were conducted in quadruple wells (n = 4) for each condition. Values are presented as mean ± standard deviation (SD). Significant differences were calculated using one-way ANOVA, followed by post hoc comparison, and the half-maximal inhibitory concentration (IC50) was obtained by nonlinear regression using GraphPad Prism 9.1 for Windows, GraphPad Software, La Jolla, California, USA, www.graphpad.com. A p-value < 0.05 was considered statistically significant. All results were compared with the control with 1% DMSO, which was considered to be 100%.

Acinetobacter baumannii = test: Antimicrobial activity, broth microdilution MIC; type: cell-based; settings: tested 256 to 0.5 µg mL^−1, 24 h, '-' not defined, no MIC in tested range
Enterococcus faecalis = test: Antimicrobial activity, broth microdilution MIC; type: cell-based; settings: tested 256 to 0.5 µg mL^−1, 24 h, '-' not defined, no MIC in tested range, read-out: MIC E. faecalis
[3] = test system: methicillin-resistant Staphylococcus aureus (MRSA); test: Antimicrobial activity, broth microdilution MIC; type: cell-based; settings: tested 256 to 0.5 µg mL^−1, 24 h, '-' not defined, no MIC in tested range
Escherichia coli = test: Antimicrobial activity, broth microdilution MIC; type: cell-based; settings: tested 256 to 0.5 µg mL^−1, 24 h, '-' not defined, no MIC in tested range
Klebsiella pneumoniae = test: Antimicrobial activity, broth microdilution MIC; type: cell-based; settings: tested 256 to 0.5 µg mL^−1, 24 h, '-' not defined, no MIC in tested range, read-out: MIC K. pneumoniae
Pseudomonas aeruginosa = test: Antimicrobial activity, broth microdilution MIC; type: cell-based; settings: tested 256 to 0.5 µg mL^−1, 24 h, '-' not defined, no MIC in tested range, read-out: MIC P. aeruginosa

Compound | IC50 (Caco-2) [µM] | IC50 (HepaRG; Homo sapiens, HepaRG, 72 h) [µM] | melting point [°C] | IC50 (A172) [µM] | IC50 (HeLa) [µM] | IC50 (AGS) [µM] | further results
Cc1nc(-c2ccccc2)nc(SCc2ccc(Cl)cc2)c1C [4-[(4-chlorobenzyl)sulfanyl]-5,6-dimethyl-2-phenylpyrimidine] |  |  |  |  |  |  | survival of normal human endothelial cells [1]: 58%
Cc1nc(-c2ccccc2)nc(SCc2ccc(Cl)cc2)c1CO [5-hydroxymethyl derivative] |  |  |  |  |  |  | IC50 (cancer cell lines): 17 to 38 µM; survival of normal human endothelial cells [1]: 1%
Cc1nc(-c2ccccc2)nc(SCc2ccccc2)c1CO [Compound 3a, [4-(benzylsulfanyl)-6-methyl-2-phenylpyrimidin-5-yl]methanol] | > 250 | 201 | 144 to 145 | > 250 | > 250 | 209 | MIC (Candida albicans): 256 µg/mL (≈ 794 µM)
Cc1ccccc1CSc1nc(-c2ccccc2)nc(C)c1CO [Compound 3b, (4-methyl-6-{[(2-methylphenyl)methyl]sulfanyl}-2-phenylpyrimidin-5-yl)methanol] |  |  | 147 |  |  |  | viability at 72 h, 10 µM [2]: 91%; viability at 72 h, 100 µM [2]: 44%; viability at 72 h, 250 µM [2]: 46%; viability at 72 h, 500 µM [2]: 34%
Cc1nc(-c2ccccc2)nc(N)c1CO [Compound 3c, (4-amino-6-methyl-2-phenylpyrimidin-5-yl)methanol] | > 250 | > 250 | 177 to 178 | > 250 | > 250 | > 250 | 
CCNc1nc(-c2ccccc2)nc(C)c1CO [Compound 3d, [4-(ethylamino)-6-methyl-2-phenylpyrimidin-5-yl]methanol] | > 250 | > 250 | 191 | > 250 | > 250 | > 250 | 
CCCNc1nc(-c2ccccc2)nc(C)c1CO [Compound 3e, [4-methyl-2-phenyl-6-(propylamino)pyrimidin-5-yl]methanol] | > 250 | > 250 | 158 to 159 | > 250 | > 250 | > 250 | MIC (Acinetobacter baumannii): 256 µg/mL (≈ 995 µM); MIC (Enterococcus faecalis): 256 µg/mL (≈ 995 µM)
C=CCNc1nc(-c2ccccc2)nc(C)c1CO [Compound 3f, {4-methyl-2-phenyl-6-[(prop-2-en-1-yl)amino]pyrimidin-5-yl}methanol] | > 250 | > 250 | 174 to 175 | > 250 | > 250 | > 250 | MIC [3]: 256 µg/mL (≈ 1000 µM)
Cc1nc(-c2ccccc2)nc(NC(C)C)c1CO [Compound 3g, {4-methyl-2-phenyl-6-[(propan-2-yl)amino]pyrimidin-5-yl}methanol] | > 250 | 183 | 160 | 147 | 209 | > 250 | MIC (Acinetobacter baumannii): 256 µg/mL (≈ 995 µM); MIC (Escherichia coli): 128 µg/mL (≈ 497 µM)
Cc1nc(-c2ccccc2)nc(NC(C)(C)C)c1CO [Compound 3h, [4-(tert-butylamino)-6-methyl-2-phenylpyrimidin-5-yl]methanol] | > 250 | 132 | 173 to 174 | > 250 | > 250 | > 250 | IC50 (HepaRG): 132 µM; MIC (Acinetobacter baumannii): 256 µg/mL (≈ 943 µM)
Cc1nc(-c2ccccc2)nc(NCCO)c1CO [Compound 3i, 2-{[5-(hydroxymethyl)-6-methyl-2-phenylpyrimidin-4-yl]amino}ethan-1-ol] | > 250 | > 250 | 141 | > 250 | > 250 | > 250 | 
Cc1nc(-c2ccccc2)nc(NC2CCCCC2)c1CO [Compound 3j, [4-(cyclohexylamino)-6-methyl-2-phenylpyrimidin-5-yl]methanol] |  |  | 143 |  |  |  | viability at 72 h, 10 µM [2]: 89%; viability at 72 h, 100 µM [2]: 28%; viability at 72 h, 250 µM [2]: 70%; viability at 72 h, 500 µM [2]: 16%
CNC(C)C1CCC(N)C(OC2C(N)CC(N)C(OC3OCC(C)(O)C(NC)C3O)C2O)O1 (stereo not drawn) [Gentamicin, reference compound] |  |  |  |  |  |  | MIC (Escherichia coli): 2 µg/mL (≈ 4.19 µM); MIC (Klebsiella pneumoniae): 2 µg/mL (≈ 4.19 µM)
C[C@H]1COc2c(N3CCN(C)CC3)c(F)cc3c(=O)c(C(=O)O)cn1c23 [Levofloxacin, reference compound] |  |  |  |  |  |  | MIC [3]: 1 µg/mL (≈ 2.77 µM); MIC (Pseudomonas aeruginosa): 1 µg/mL (≈ 2.77 µM); MIC (Acinetobacter baumannii): 0.5 µg/mL (≈ 1.38 µM); MIC (Enterococcus faecalis): 4 µg/mL (≈ 11.1 µM)
